Laboratory results reported in patent US20140309244A1, “NOVEL MICROBIOCIDES” (SYNGENTA PARTICIPATIONS AG, priority 2010, published 2014).

What was measured:
[1] = test system: Puccinia recondita f. sp. tritici; assay: Puccinia recondita f. sp. tritici / wheat / leaf disc preventative (brown rust); format: in vivo; conditions: foliar, wheat cv Kanzler leaf segments, inoculated 1 day after application, assessed 7-9 days after application, read-out: control of Puccinia recondita f. sp. tritici (percent disease control compared to untreated)
Description: Puccinia recondita f. sp. tritici/Wheat/Leaf Disc Preventative (Brown Rust) Wheat leaf segments cultivated variety (cv) Kanzler were placed on agar in 24-well plates and sprayed with formulated test compound diluted in water at an application rate of 200 ppm. The leaf disks were inoculated with a spore suspension of the fungus 1 day after application. The inoculated leaf segments were incubated at 19° C. and 75% relative humidity under a light regime of 12/12 h (light/dark) in a climate cabinet and the activity of a compound was assessed as percent disease control compared to untreated when an appropriate level of disease damage appears in untreated check leaf segments (7-9 days after application). […].103

[2] = test system: Puccinia recondita f. sp. tritici; assay: Puccinia recondita f. sp. tritici / wheat / leaf disc curative (brown rust); format: in vivo; conditions: foliar, wheat cv Kanzler leaf segments, applied 1 day after inoculation, assessed 6-8 days after application, read-out: control of Puccinia recondita f. sp. tritici (percent disease control compared to untreated)
Description: Puccinia recondita f. sp. tritici/Wheat/Leaf Disc Curative (Brown Rust): Wheat leaf segments cv Kanzler were placed on agar in 24-well plates. The leaf segments were inoculated with a spore suspension of the fungus. The plates were stored in darkness at 19° C. and 75% relative humidity. The formulated test compound diluted in water was applied at an application rate of 200 ppm 1 day after inoculation.

[3] = test system: Phaeosphaeria nodorum (Septoria nodorum); assay: Phaeosphaeria nodorum (Septoria nodorum) / wheat / leaf disc preventative (glume blotch); format: in vivo; conditions: Parastagonospora nodorum, foliar, wheat cv Kanzler leaf segments, inoculated 2 days after application, assessed 5-7 days after application, read-out: control of Phaeosphaeria nodorum (percent disease control compared to untreated)
Pyrenophora teres = Pyrenophora teres / barley / leaf disc preventative (net blotch); format: in vivo; conditions: foliar, barley cv Hasso leaf segments, inoculated two days after application, assessed 5-7 days after application, read-out: control of Pyrenophora teres (disease control compared to untreated)
[4] = test system: Botryotinia fuckeliana (Botrytis cinerea); assay: Botryotinia fuckeliana (Botrytis cinerea) / liquid culture (gray mould); format: cell-based; conditions: Vogels broth, 96-well plate, 24° C., 3-4 days after application, read-out: control of Botryotinia fuckeliana (inhibition of growth, photometric)
[5] = test system: Glomerella lagenarium (Colletotrichum lagenarium); assay: Glomerella lagenarium (Colletotrichum lagenarium) / liquid culture (anthracnose); format: cell-based; conditions: Colletotrichum orbiculare, PDB potato dextrose broth, 96-well plate, 24° C., 3-4 days after application, read-out: control of Glomerella lagenarium (inhibition of growth, photometric)
[6] = test system: Mycosphaerella arachidis (Cercospora arachidicola); assay: Mycosphaerella arachidis (Cercospora arachidicola) / liquid culture (early leaf spot); format: cell-based; conditions: PDB potato dextrose broth, 96-well plate, 24° C., 4-5 days after application, read-out: control of Mycosphaerella arachidis (inhibition of growth, photometric)
[7] = test system: Mycosphaerella graminicola (Septoria tritici); assay: Mycosphaerella graminicola (Septoria tritici) / liquid culture (Septoria blotch); format: cell-based; conditions: Zymoseptoria tritici, PDB potato dextrose broth, 96-well plate, 24° C., 4-5 days after application, read-out: control of Mycosphaerella graminicola (inhibition of growth, photometric)
[8] = test system: Thanatephorus cucumeris (Rhizoctonia solani); assay: Thanatephorus cucumeris (Rhizoctonia solani) / liquid culture (foot rot, damping-off); format: cell-based; conditions: liquid culture of mycelia fragments, PDB potato dextrose broth, 96-well plate, 24° C., 3-4 days after application, read-out: control of Thanatephorus cucumeris (inhibition of growth, photometric)
Description: Thanatephorus cucumeris (Rhizoctonia solani)/Liquid Culture (Foot Rot, Damping-Off): Mycelia fragments of a newly grown liquid culture of the fungus are directly mixed into nutrient broth (PDB potato dextrose broth). After placing a DMSO solution of the test compounds into a 96-well microtiter plate at an application rate of 200 ppm, the nutrient broth containing the fungal material was added. The test plates were incubated at 24° C. and the inhibition of growth was determined photometrically 3-4 days after application.

[9] = test system: Monographella nivalis (Microdochium nivale); assay: Monographella nivalis (Microdochium nivale) / liquid culture (foot rot cereals); format: cell-based; conditions: PDB potato dextrose broth, 96-well plate, 24° C., 4-5 days after application, read-out: control of Monographella nivalis (inhibition of growth, photometric)
Description: Monographella nivalis (Microdochium nivale)/Liquid Culture (Foot Rot Cereals): Conidia of the fungus from cryogenic storage were directly mixed into nutrient broth (PDB potato dextrose broth). After placing a DMSO solution of test compound into a 96-well microtiter plate at an application rate of 200 ppm, the nutrient broth containing the fungal spores was added. The test plates were incubated at 24° C. and the inhibition of growth was determined photometrically 4-5 days after application. […].103

[10] = test system: Blumeria graminis f. sp. tritici (Erysiphe graminis f. sp. tritici); assay: Blumeria graminis f. sp. tritici (Erysiphe graminis f. sp. tritici) / wheat / leaf disc preventative (powdery mildew on wheat); format: in vivo; conditions: foliar, wheat cv. Kanzler leaf segments, inoculated 1 day after application, assessed 6-8 days after application, read-out: control of Blumeria graminis (percent disease control compared to untreated)
[11] = test system: Magnaporthe grisea (Pyricularia oryzae); assay: whole plant or invertebrate; format: in vivo; conditions: foliar, read-out: control of Magnaporthe grisea (percent disease control compared to untreated)
Gaeumannomyces graminis = Gaeumannomyces graminis / liquid culture (take-all of cereals); format: cell-based; conditions: liquid culture of mycelial fragments, PDB potato dextrose broth, 96-well plate, 24° C., 4-5 days after application, read-out: control of Gaeumannomyces graminis (inhibition of growth, photometric)

CCc1c2c(nc3ccccc13)/C(=N/OCCCc1cccc(/C(C)=N/OC)n1)CCC2 [P.92]
≥ 80%: pest or weed control at 200 ppm [1] | pest or weed control at 200 ppm [2] | pest or weed control at 200 ppm [3] | pest or weed control at 200 ppm (Pyrenophora teres) | inhibition at 200 ppm [4] | inhibition at 200 ppm [5] | inhibition at 200 ppm [6] | inhibition at 200 ppm [7] | inhibition at 200 ppm [8] | inhibition at 200 ppm [9] | pest or weed control at 200 ppm [10] | pest or weed control at 200 ppm [11]

CO/N=C(\C)c1cccc(CCCO/N=C(\C)c2nc(C)cc(C)n2)n1 [P.62, 1-(6-(3-[1-(4,6-dimethyl-pyrimidin-2-yl)-eth-(E)-ylideneaminooxy]-propyl)-pyridin-2-yl)-ethanone O-methyl oxime]
≥ 80%: pest or weed control at 200 ppm [2] | inhibition at 200 ppm [4] | inhibition at 200 ppm [6] | inhibition at 200 ppm [7] | inhibition at 200 ppm [8] | pest or weed control at 200 ppm [11]

CO/N=C(\C)c1cccc(CCCO/N=C2\CCCc3c2nc2ccccc2c3C2CC2)n1 [P.97]
≥ 80%: pest or weed control at 200 ppm [1] | pest or weed control at 200 ppm [2] | pest or weed control at 200 ppm [3] | pest or weed control at 200 ppm (Pyrenophora teres) | inhibition at 200 ppm [4] | inhibition at 200 ppm [5] | inhibition at 200 ppm [6] | inhibition at 200 ppm [7] | inhibition at 200 ppm [9] | pest or weed control at 200 ppm [10] | pest or weed control at 200 ppm [11]

C=CCOCCCc1cccc(/C(C)=N/OCCCc2cccc(/C(C)=N/OC)n2)n1 [P.74]
≥ 80%: pest or weed control at 200 ppm [3] | pest or weed control at 200 ppm (Pyrenophora teres) | inhibition at 200 ppm [4] | inhibition at 200 ppm [6] | inhibition at 200 ppm [7] | inhibition at 200 ppm (Gaeumannomyces graminis) | inhibition at 200 ppm [9] | pest or weed control at 200 ppm [10] | pest or weed control at 200 ppm [11]

CO/N=C(\C)c1cccc(CCCO/N=C2\CCCc3c2nc2cc(OC)c(OC)cc2c3C)n1 [P.82]
≥ 80%: pest or weed control at 200 ppm [3] | pest or weed control at 200 ppm (Pyrenophora teres) | inhibition at 200 ppm [4] | inhibition at 200 ppm [5] | inhibition at 200 ppm [6] | inhibition at 200 ppm [7] | inhibition at 200 ppm [8] | inhibition at 200 ppm [9] | pest or weed control at 200 ppm [10] | pest or weed control at 200 ppm [11]

CO/N=C(\C)c1cccc(CCCO/N=C(\C)c2cccc(C)n2)n1 [P.12]
≥ 80%: pest or weed control at 200 ppm [1] | pest or weed control at 200 ppm [2] | pest or weed control at 200 ppm [3] | pest or weed control at 200 ppm (Pyrenophora teres) | inhibition at 200 ppm [4] | inhibition at 200 ppm [5] | inhibition at 200 ppm [6] | inhibition at 200 ppm [7] | inhibition at 200 ppm (Gaeumannomyces graminis) | inhibition at 200 ppm [8] | inhibition at 200 ppm [9] | pest or weed control at 200 ppm [10]

CON=C(c1ccccc1)c1cccc(CCCO/N=C(\C)c2cccc(C)n2)n1 [P.24]
≥ 80%: pest or weed control at 200 ppm [1] | pest or weed control at 200 ppm [2] | pest or weed control at 200 ppm [3] | pest or weed control at 200 ppm (Pyrenophora teres) | inhibition at 200 ppm [4] | inhibition at 200 ppm [5] | inhibition at 200 ppm [6] | inhibition at 200 ppm [7] | inhibition at 200 ppm (Gaeumannomyces graminis) | inhibition at 200 ppm [8] | inhibition at 200 ppm [9] | pest or weed control at 200 ppm [10]

CO/N=C(\C)c1cccc(CCCO/N=C2\CCCc3c2nc2ccsc2c3C)n1 [P.88]
≥ 80%: pest or weed control at 200 ppm [1] | pest or weed control at 200 ppm [2] | pest or weed control at 200 ppm [3] | pest or weed control at 200 ppm (Pyrenophora teres) | inhibition at 200 ppm [4] | inhibition at 200 ppm [5] | inhibition at 200 ppm [6] | inhibition at 200 ppm [7] | inhibition at 200 ppm [8] | inhibition at 200 ppm [9] | pest or weed control at 200 ppm [10] | pest or weed control at 200 ppm [11]

CO/N=C(\C)c1cccc(CCCO/N=C(\C)c2cc(C)cc(C)n2)n1 [P.10]
≥ 80%: pest or weed control at 200 ppm [1] | pest or weed control at 200 ppm [2] | pest or weed control at 200 ppm [3] | pest or weed control at 200 ppm (Pyrenophora teres) | inhibition at 200 ppm [4] | inhibition at 200 ppm [5] | inhibition at 200 ppm [6] | inhibition at 200 ppm [7] | inhibition at 200 ppm (Gaeumannomyces graminis) | inhibition at 200 ppm [8] | inhibition at 200 ppm [9] | pest or weed control at 200 ppm [10]

CO/N=C(\C)c1cccc(CCCO/N=C2\CCCc3c2nc2ccc(Cl)cc2c3C)n1 [P.91]
≥ 80%: pest or weed control at 200 ppm [1] | pest or weed control at 200 ppm [3] | inhibition at 200 ppm [4] | inhibition at 200 ppm [5] | inhibition at 200 ppm [6] | inhibition at 200 ppm [7] | inhibition at 200 ppm [8] | inhibition at 200 ppm [9] | pest or weed control at 200 ppm [10] | pest or weed control at 200 ppm [11]

CCC(CO/N=C(\C)c1cccc(C)n1)Cc1cccc(/C(C)=N/OC)n1 (stereo not drawn) [P.04]
≥ 80%: pest or weed control at 200 ppm [1] | pest or weed control at 200 ppm [2] | pest or weed control at 200 ppm [3] | pest or weed control at 200 ppm (Pyrenophora teres) | inhibition at 200 ppm [4] | inhibition at 200 ppm [5] | inhibition at 200 ppm [6] | inhibition at 200 ppm [7] | inhibition at 200 ppm (Gaeumannomyces graminis) | inhibition at 200 ppm [8] | inhibition at 200 ppm [9] | pest or weed control at 200 ppm [10]

COCCCc1cccc(/C(C)=N/OCCCc2cccc(/C(C)=N/OC)n2)n1 [P.76]
≥ 80%: pest or weed control at 200 ppm [3] | pest or weed control at 200 ppm (Pyrenophora teres) | inhibition at 200 ppm [4] | inhibition at 200 ppm [5] | inhibition at 200 ppm [6] | inhibition at 200 ppm [7] | inhibition at 200 ppm (Gaeumannomyces graminis) | inhibition at 200 ppm [9] | pest or weed control at 200 ppm [11]

CO/N=C(\C)c1cccc(CCCO/N=C2\CCCc3c2nc2ncccc2c3C)n1 [P.72]
≥ 80%: pest or weed control at 200 ppm [1] | pest or weed control at 200 ppm [2] | pest or weed control at 200 ppm [3] | pest or weed control at 200 ppm (Pyrenophora teres) | inhibition at 200 ppm [4] | inhibition at 200 ppm [5] | inhibition at 200 ppm [7] | pest or weed control at 200 ppm [10] | pest or weed control at 200 ppm [11]

CO/N=C(\C)c1cccc(CCCO/N=C2\CCCc3cc4cc(Cl)ccc4nc32)n1 [P.96]
≥ 80%: pest or weed control at 200 ppm [3] | pest or weed control at 200 ppm (Pyrenophora teres) | inhibition at 200 ppm [4] | inhibition at 200 ppm [5] | inhibition at 200 ppm [6] | inhibition at 200 ppm [7] | inhibition at 200 ppm (Gaeumannomyces graminis) | inhibition at 200 ppm [8] | inhibition at 200 ppm [9] | pest or weed control at 200 ppm [10] | pest or weed control at 200 ppm [11]
